From article PMC4376724, “Differential Phenotypic and Functional Profiles of TcCA-2 -Specific Cytotoxic CD8^+ T Cells in the Asymptomatic versus Cardiac Phase in Chagasic Patients” (PLoS ONE, 2015)

Test system: PBMC from HLA-A*02:01 Chagas disease patients and healthy donors
Assay: Granzyme B ELISPOT in PBMC
Assay type: cell-based, human
Settings: 30 h, non-peptide control spots subtracted
Experimental: For the screening of the recognition of TcCA-2 epitopes by Chagas disease patients, 10 HLA-A*02:01 adult patients in the asymptomatic phase of the disease (IND) were enrolled. For cytotoxicity, functional activity determinations and phenotypic characterization another group of 19 HLA-A*02:01 adults Chagas disease patients and 9 healthy donors were analyzed. These patients were at the chronic stage of the disease and were considered to be at the asymptomatic phase (IND, n = 8) if there was no evidence of having cardiac or gastrointestinal disorders. Chronic Chagas cardiomyopathy patients (CCC, n = 11) were stratified into G1 to G3 stages following Kuschnir classification according to clinical criteria and radiological, electrocardiographic and echocardiography analyses. The number of patients was the one recommended by the Hospital Ethical Committee. […] The patients were enrolled in both studies (functional and phenotypic characterization, IND n = 6 and CCC n = 7) when the available number of purified PBMC (limited by the cellular number isolated from each subject) was enough for both analyses. Another four CCC patients had to be enrolled to perform the phenotypic analysis in order to reach statistical significance.
The frequency of Granzyme B (GzB) producing cells was evaluated by ELISPOT assays using cryopreserved PBMC from Chagas disease patients and healthy donors as control. This protocol was carried out as described in [20]. Briefly, 96-well PVDF membrane-bottom plates (Millipore) were pre-wetted with 35% ethanol and washed five times with PBS. Subsequently, plates were coated with 100 μL of anti-GzB (5 μg/mL) monoclonal antibody (Mabtech) and incubated overnight at 4°C. Plates were washed with PBS and incubated with 200 μL/well of blocking solution (RPMI-1640-10% FCS) at room temperature for 30 minutes. Afterwards, 5 × 10^4 PBMC/well were added and incubated with 1 μM of each peptide for 30 h at 37°C with 5% CO2, in triplicates. As a positive control, the PBMC were stimulated with 50 ng/ml phorbol 12-myristate 13-acetate (PMA, Sigma) and 500 ng/ml ionomycin (Sigma), or 10 μg/mL of phytohaemaglutinin (PHA, Sigma). Supernatants were harvested and aliquoted at -80°C for subsequent cytokine secretion profile determination. After five washes, 100 μL/well of a 1 μg/mL solution of biotinylated GzB-specific antibody (Mabtech) was added in 0.5% iFCS in PBS, and the plates were incubated for 2 h at room temperature. Wells were extensively washed with PBS and incubated with 100 μL/well streptavidin-alkaline phosphatase (Sigma) at dilution of 1:6000 for 1 h at room temperature. After washing (5x) with PBS, 50 μL/well of substrate solution (NBT-BCIP substrate, Sigma) were added. The wells were incubated for 20–30 min at room temperature in the dark. The reaction was stopped by rinsing the plates with cold tap water. The spots were visualized in an AXIO PLAN 2 Imagine microscope and quantified using KS ELISPOT software. The results are expressed as the number of peptide-induced spots forming cell (SFC) x10^6 PBMC after subtracting the spot number of peptide un-stimulated PBMCs (basal response). The results were considered positive when a minimum of 20 SFCx10^6 PBMCs and of at least over twofold basal spot numbers were detected.
The cytotoxic activity of the CD8^+ T cells specific for these four TcCA-2-derived epitopes was evaluated by secretion of GzB through ELISPOT assays. Thus, PBMC from 15 HLA-A*02:01 chagasic patients (8 IND and 7 CCC) and 9 healthy donors were incubated with the peptides under study. A positive GzB response was detected in 3 patients (2 IND and 1 CCC) out of 10 in response to incubation with the TcCA-2_657-666 peptide, 5 patients (3 IND and 2 CCC) out of 14 in response to the TcCA-2_442-451 peptide, 3 patients (3 CCC) out of 14 in response to the TcCA-2_607-615 peptide and 2 patients (2 IND) out of 11 in response to the TcCA-2_273-281 peptide (Table 3). Cytotoxic activities were not detected in any healthy donor. […]

[1] = PBMC of patient CCC I 770, 1 μM peptide
[2] = PBMC of patient CCC I 861, 1 μM peptide
[3] = PBMC of patient CCC I 884, 1 μM peptide
[4] = PBMC of patient CCC III 509, 1 μM peptide
[5] = PBMC of patient IND 365, 1 μM peptide
[6] = PBMC of patient IND 388, 1 μM peptide
[7] = PBMC of patient IND 510, 1 μM peptide
[8] = PBMC of patient IND 535, 1 μM peptide
[9] = PBMC of patient IND 571, 1 μM peptide
[10] = PBMC of patient IND 917, 1 μM peptide
[11] = PBMC of subject HD 001, 1 μM peptide
[12] = PBMC of subject HD 004, 1 μM peptide
[13] = PBMC of subject HD 005, 1 μM peptide
[14] = PBMC of subject HD 006, 1 μM peptide
[15] = PBMC of subject HD 008, 1 μM peptide
[16] = PBMC of subject HD 011, 1 μM peptide
[17] = PBMC of subject HD 340, 1 μM peptide
[18] = PBMC of subject HD 664, 1 μM peptide
[19] = PBMC of patient CCC I 456, 1 μM peptide
[20] = PBMC of patient CCC II 142, 1 μM peptide
[21] = PBMC of patient CCC III 797, 1 μM peptide
[22] = PBMC of patient IND 265, 1 μM peptide
[23] = PBMC of patient IND 283, 1 μM peptide

Work on ALQVTNHRYL [TcCA-2_657-666] yielded a GzB [1] of -7 SFC/10^6, a GzB [2] of 50 SFC/10^6 and a GzB [3] of 0 SFC/10^6. The GzB [4] was 0 SFC/10^6, the GzB [5] was 0 SFC/10^6 and the GzB [6] was 7 SFC/10^6. For the same sequence, the GzB [7] was -7 SFC/10^6, the GzB [8] was 67 SFC/10^6 and the GzB [9] was 83 SFC/10^6. The GzB [10] was -10 SFC/10^6, the GzB [11] was 0 SFC/10^6 and the GzB [12] was -7 SFC/10^6. For the same sequence, the GzB [13] was -40 SFC/10^6, the GzB [14] was 0 SFC/10^6 and the GzB [15] was -47 SFC/10^6. The GzB [16] was -7 SFC/10^6, the GzB (PBMC of subject HD 017, 1 μM peptide) was 0 SFC/10^6 and the GzB [17] was 1 SFC/10^6. For the same sequence, the GzB [18] was 0 SFC/10^6.

ALRNLRVFL [TcCA-2_607-615] was tested, and the GzB [19] was 13 SFC/10^6, the GzB [1] was 0 SFC/10^6 and the GzB [2] was -8 SFC/10^6. The GzB [3] was 0 SFC/10^6, the GzB [20] was 53 SFC/10^6 and the GzB [4] was 25 SFC/10^6. For the same sequence, the GzB [21] was 27 SFC/10^6, the GzB [22] was -100 SFC/10^6 and the GzB [23] was -20 SFC/10^6. The GzB [5] was 7 SFC/10^6, the GzB [6] was 13 SFC/10^6 and the GzB [7] was 13 SFC/10^6. For the same sequence, the GzB [8] was -7 SFC/10^6, the GzB [10] was -20 SFC/10^6 and the GzB [11] was 0 SFC/10^6. It also gave a GzB [12] of -7 SFC/10^6, a GzB [13] of -47 SFC/10^6 and a GzB [14] of 7 SFC/10^6. It also gave a GzB [15] of -70 SFC/10^6, a GzB [16] of -7 SFC/10^6 and a GzB [17] of 0 SFC/10^6. For the same sequence, the GzB [18] was 0 SFC/10^6.

AAAGDKLSL [TcCA-2_273-281] was tested, and the GzB [19] was 13 SFC/10^6, the GzB [1] was -7 SFC/10^6 and the GzB [2] was 8 SFC/10^6. It also gave a GzB [3] of 7 SFC/10^6, a GzB [4] of 0 SFC/10^6 and a GzB [5] of 7 SFC/10^6. The GzB [6] was 33 SFC/10^6, the GzB [7] was -20 SFC/10^6 and the GzB [8] was -27 SFC/10^6. The GzB [9] was 67 SFC/10^6, the GzB [10] was 13 SFC/10^6 and the GzB [11] was 1 SFC/10^6. The GzB [12] was 0 SFC/10^6, the GzB [13] was -47 SFC/10^6 and the GzB [14] was -7 SFC/10^6. For the same sequence, the GzB [15] was -47 SFC/10^6, the GzB [16] was -20 SFC/10^6 and the GzB [17] was 0 SFC/10^6. The GzB [18] was 0 SFC/10^6.

Sequence TVFDASRSTV [TcCA-2_442-451] has a GzB [19] of -7 SFC/10^6, a GzB [1] of 13 SFC/10^6 and a GzB [2] of 0 SFC/10^6. The GzB [3] was 7 SFC/10^6, the GzB [20] was 80 SFC/10^6 and the GzB [4] was 50 SFC/10^6. The GzB [21] was 7 SFC/10^6, the GzB [22] was -13 SFC/10^6 and the GzB [23] was 47 SFC/10^6. The GzB [5] was 27 SFC/10^6, the GzB [6] was 0 SFC/10^6 and the GzB [7] was 0 SFC/10^6. The GzB [8] was -13 SFC/10^6, the GzB [10] was 40 SFC/10^6 and the GzB [11] was 0 SFC/10^6. For the same sequence, the GzB [12] was 0 SFC/10^6, the GzB [13] was -40 SFC/10^6 and the GzB [14] was -7 SFC/10^6. The GzB [15] was -73 SFC/10^6, the GzB [16] was -20 SFC/10^6 and the GzB [17] was 1 SFC/10^6. It also gave a GzB [18] of 1 SFC/10^6.
